Key:
[1] = Cytotoxicity against human PDAC cells assessed as cell viability; assay type: functional, cell-based
[2] = target: T1, NAD-dependent protein deacetylase sirtuin-2 (Homo sapiens, UniProt Q8IXJ6); test: Inhibition of recombinant SIRT2 (unknown origin) using […] as substrate incubated for 4 hrs by homogenous fluorescent deacetylase assay
T1 sequence (Q8IXJ6 whole entry): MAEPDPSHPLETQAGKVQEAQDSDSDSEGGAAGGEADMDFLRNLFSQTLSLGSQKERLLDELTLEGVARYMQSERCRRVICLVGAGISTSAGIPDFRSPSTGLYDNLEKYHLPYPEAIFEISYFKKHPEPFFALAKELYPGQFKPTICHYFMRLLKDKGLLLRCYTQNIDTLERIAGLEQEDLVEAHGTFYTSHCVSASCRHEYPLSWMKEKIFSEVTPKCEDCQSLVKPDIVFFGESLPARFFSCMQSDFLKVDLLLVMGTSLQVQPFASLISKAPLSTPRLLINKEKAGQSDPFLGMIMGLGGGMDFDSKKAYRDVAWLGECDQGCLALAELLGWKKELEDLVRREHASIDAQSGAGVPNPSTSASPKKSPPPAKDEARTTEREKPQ

IC50 [2] [µM] | Structure (SMILES) | IC50 [1] [µM]
– | CCOC(=O)C1=CN(C(=O)c2ccccc2)C=C(C(=O)OCC)C1c1cccc(OC)c1 | 25.4
1.15 | Cc1ccc(C(=O)Nc2ccc(S(=O)(=O)O)c3cc(S(=O)(=O)O)cc(S(=O)(=O)O)c23)cc1NC(=O)c1cccc(NC(=O)Nc2cccc(C(=O)Nc3cc(C(=O)Nc4ccc(S(=O)(=O)O)c5cc(S(=O)(=O)O)cc(S(=O)(=O)O)c45)ccc3C)c2)c1 [SURAMIN] | –

Source: ChEMBL document CHEMBL5137064, “Therapeutic Potential and Activity Modulation of the Protein Lysine Deacylase Sirtuin 5” (J Med Chem, 2022)
